Molecular target: Estrogen receptor (Rattus norvegicus) (UniProt P06211+Q62986)
Assay: Displacement of [3H]estradiol from rat uterine estrogen receptor
Assay type: protein assay

| RBA [%] | Compound |
| --- | --- |
| 23 | Cc1ccccc1C1=C(c2ccc(O)cc2)c2ccc(O)cc2C1 |
| 12 | Oc1ccc2c(c1)CC(c1ccccc1)=C2c1ccccc1F |
| 9.6 | Oc1ccc(C2=C(c3ccccc3)Cc3cc(O)ccc32)c(F)c1 |
| 49 | Oc1ccc2c(c1)CC(c1ccccc1F)=C2c1ccccc1 |
| 100 | Cc1ccccc1C1=C(c2ccccc2)c2ccc(O)cc2C1 |
| 1.7 | Cc1ccc(C2=C(c3ccccc3)Cc3cc(O)ccc32)cc1 |
| 11 | Cc1ccccc1C1=C(c2ccccc2)Cc2cc(O)ccc21 |

— ChEMBL document CHEMBL1125126, “Torsionally and hydrophobically modified 2,3-diarylindenes as estrogen receptor ligands” (J Med Chem, 1990)
